# Tests used:
# [1] = system: γ-synuclein mRNA in 3T3-L1 adipocytes; test: γ-synuclein mRNA expression in 3T3-L1 adipocytes treated with PPARγ agonist (quantitative real-time PCR); format: cell-based, murine
# Method: 3T3-L1 Adipocyte Differentiation & PPARγAgonist Studies. Results herein were generated using the samples described in our recently-published studies (1). Briefly, murine 3T3-L1 fibroblasts (ATCC, Manassas, Va.) grown to between 5-9 passages were induced to differentiate into adipocytes using a protocol similar to Farmer et al. (i.e., (22)). Two-day-confluent cells grown in high-glucose (25 mM) DMEM and 10% FBS (37° C., 5% CO2) in 6-well rat tail collagen-coated plates were exposed to differentiation medium containing 10 μg/ml bovine insulin (˜1.6 μM), 1 μM dexamethasone, and 0.5 mM 3-isobutyl-1-methylxanthine (IBMX) for 2 days. Cells were grown thereafter in maintenance medium (DMEM/10% FBS+2.5 μg/mL insulin). Cell culture media was replaced daily. Proof-of-principle studies tested the ability of the potent non-thiazoladinedione PPARγ agonist GW1929 (23) to regulate γ-synuclein gene expression at various points in the 3T3-L1 adipocyte differentiation and maturation process, as indicated. For these experiments, cells were cultured for the times and doses indicated in media containing vehicle (DMSO; 0.1% by vol.) or GW1929 (0.1% by vol.). RNA was prepared from 3T3-L1 adipocytes using Trizol-based methods for cell culture samples (Ambion, Austin, Tex.). RNA abundance and integrity were checked using a Nanoprop® ND-1000 Spectrophotometer (Nanoprop Technologies, Wilmington, Del.) and an Agilent 2100 bioanalyzer (Agilent, Foster City, Calif.) per manufacturer's instructions.
# Gene Expression Analyses. RNA abundance of γ-synuclein and of other genes of interest were measured in 3T3-L1 adipocyte samples using quantitative real-time PCR, as described in detail previously (1). These assays utilized gene-specific TaqMan primers and FAM-MGB labeled probes (Assays-on-Demand®, Applied Biosystems Inc., Foster City, Calif.) and were run in duplicate or triplicate for each sample using an ABI 7900HT instrument. Primers/probe ABI identifiers for human reagents were γ-synuclein (Hs00268306 ml), leptin (Hs00174877 ml), and 11B-hydroxysteroid dehydrogenase (11β-HSD-1; Hs00194153 ml), and for mouse, γ-synuclein (Mm00488345 ml) and others described previously (1). Mouse and human tissue panel samples, and samples derived from non-obese and obese WAT (24) were assayed using a two-step process with preparation of cDNA from total RNA, followed by quantitative real-time PCR. […] Amplification cycle number (Ct) of 18S for each sample was determined using commercial 18S primers and probe (ABI) to correct for template loading differences across all target genes (ΔCt method: ΔCt=sample Ct−18S Ct), and expression values were determined relative to control transcript levels using a mathematical formula as previously described (1). […]
# [2] = system: leptin mRNA in 3T3-L1 adipocytes; test: leptin mRNA expression in 3T3-L1 adipocytes treated with PPARγ agonist (quantitative real-time PCR); format: cell-based, murine; conditions: fully-differentiated 3T3-L1 adipocytes, 18 hr treatment, compared with the γ-synuclein mRNA decrease
# Method: 3T3-L1 Adipocyte Differentiation & PPARγAgonist Studies. Results herein were generated using the samples described in our recently-published studies (1). Briefly, murine 3T3-L1 fibroblasts (ATCC, Manassas, Va.) grown to between 5-9 passages were induced to differentiate into adipocytes using a protocol similar to Farmer et al. (i.e., (22)). Two-day-confluent cells grown in high-glucose (25 mM) DMEM and 10% FBS (37° C., 5% CO2) in 6-well rat tail collagen-coated plates were exposed to differentiation medium containing 10 μg/ml bovine insulin (˜1.6 μM), 1 μM dexamethasone, and 0.5 mM 3-isobutyl-1-methylxanthine (IBMX) for 2 days. […]
# Gene Expression Analyses. RNA abundance of γ-synuclein and of other genes of interest were measured in 3T3-L1 adipocyte samples using quantitative real-time PCR, as described in detail previously (1). […] Mouse and human tissue panel samples, and samples derived from non-obese and obese WAT (24) were assayed using a two-step process with preparation of cDNA from total RNA, followed by quantitative real-time PCR. […] Amplification cycle number (Ct) of 18S for each sample was determined using commercial 18S primers and probe (ABI) to correct for template loading differences across all target genes (ΔCt method: ΔCt=sample Ct−18S Ct), and expression values were determined relative to control transcript levels using a mathematical formula as previously described (1). […]
SMILES,"decrease of γ-synuclein mRNA abundance ([1]; fully-differentiated 3T3-L1 adipocytes, 18 hr treatment, dose-response, vs vehicle (DMSO)) [%]","γ-synuclein expression (direction of change) ([1]; mature fat cells, single dose, short-term (18 hr) exposure)","γ-synuclein mRNA (direction of change) ([1]; pre-adipocytes and immature adipocytes, single dose, short-term (18 hr) exposure)",leptin mRNA pattern in response to short-term treatment [2],"effective doses required to decrease γ-synuclein and leptin mRNA, compared to GW1929 ([1]; 3T3-L1 adipocytes, data not shown)"
CN(CCOc1ccc(C[C@H](Nc2ccccc2C(=O)c2ccccc2)C(=O)O)cc1)c1ccccn1 [GW1929],≤ 50,decrease,increased,paralleled qualitatively,–
Cc1c(C)c2c(c(C)c1O)CCC(C)(COc1ccc(CC3SC(=O)NC3=O)cc1)O2 (centres unmarked) [troglitazone],–,–,–,–,at least 5 fold
